Laboratory results taken from the NIST ThermoML archive (doi:10.1016/j.jct.2016.12.019).
± gives the expanded uncertainty stated by the source.

Test: xn = mol fraction of the nth substance listed
Settings: 100 kPa, Liquid; for viscosity: Capillary tube (Ostwald / Ubbelohde) method; for speed of sound: Frequency=2 MHz, Linear variable-path acoustic interferometer; for mass density: Vibrating tube method

CCN(CC)c1ccccc1 [N,N-diethylaniline] + CCCCCCCCCCO
Settings | mass density [kg/m3] | speed of sound [m/s] | viscosity [mPa·s]
303.15 K, x1 = 0.1141 | 831.36 ± 1.1 | 1364.5 ± 8.3 | 7.932 ± 0.22
303.15 K, x1 = 0.2218 | 839.38 ± 1.1 | 1366.8 ± 8.4 | 6.521 ± 0.18
303.15 K, x1 = 0.3717 | 852.13 ± 1.1 | 1372.3 ± 8.4 | 4.96 ± 0.14
303.15 K, x1 = 0.4886 | 863.05 ± 1.1 | 1378.1 ± 8.4 | 4.007 ± 0.11
303.15 K, x1 = 0.5815 | 872.51 ± 1.1 | 1383.9 ± 8.5 | 3.386 ± 0.092
303.15 K, x1 = 0.6645 | 881.58 ± 1.1 | 1390.1 ± 8.5 | 2.918 ± 0.079
303.15 K, x1 = 0.7545 | 892.16 ± 1.1 | 1398.3 ± 8.5 | 2.494 ± 0.068
303.15 K, x1 = 0.8324 | 902.01 ± 1.1 | 1406.8 ± 8.6 | 2.185 ± 0.059
303.15 K, x1 = 0.9121 | 912.85 ± 1.1 | 1417.5 ± 8.7 | 1.929 ± 0.052
303.15 K, x1 = 1 | 925.8 ± 1.1 | 1432 ± 8.7 | 1.711 ± 0.046
308.15 K, x1 = 0.1141 | 827.63 ± 1.1 | 1345.2 ± 8.2 | 6.651 ± 0.18
308.15 K, x1 = 0.2218 | 835.9 ± 1.1 | 1347.8 ± 8.2 | 5.497 ± 0.15
308.15 K, x1 = 0.3717 | 848.55 ± 1.1 | 1353.7 ± 8.3 | 4.217 ± 0.12
308.15 K, x1 = 0.4886 | 859.44 ± 1.1 | 1359.9 ± 8.3 | 3.43 ± 0.094
308.15 K, x1 = 0.5815 | 868.83 ± 1.1 | 1366 ± 8.3 | 2.914 ± 0.079
308.15 K, x1 = 0.6645 | 877.84 ± 1.1 | 1372.5 ± 8.4 | 2.523 ± 0.069
308.15 K, x1 = 0.7545 | 888.35 ± 1.1 | 1380.9 ± 8.4 | 2.167 ± 0.059
308.15 K, x1 = 0.8324 | 898.14 ± 1.1 | 1389.7 ± 8.5 | 1.913 ± 0.052
308.15 K, x1 = 0.9121 | 908.91 ± 1.1 | 1400.6 ± 8.6 | 1.705 ± 0.046
308.15 K, x1 = 1 | 921.8 ± 1.1 | 1416 ± 8.6 | 1.537 ± 0.041
313.15 K, x1 = 0.1141 | 824 ± 1.1 | 1329.2 ± 8.1 | 5.619 ± 0.15
313.15 K, x1 = 0.2218 | 832.24 ± 1.1 | 1331.8 ± 8.1 | 4.671 ± 0.13
313.15 K, x1 = 0.3717 | 844.85 ± 1.1 | 1337.5 ± 8.2 | 3.616 ± 0.099
313.15 K, x1 = 0.4886 | 855.71 ± 1.1 | 1343.5 ± 8.2 | 2.963 ± 0.081
313.15 K, x1 = 0.5815 | 865.07 ± 1.1 | 1349.5 ± 8.2 | 2.529 ± 0.069
313.15 K, x1 = 0.6645 | 874.05 ± 1.1 | 1355.7 ± 8.3 | 2.199 ± 0.06
313.15 K, x1 = 0.7545 | 884.52 ± 1.1 | 1363.8 ± 8.3 | 1.898 ± 0.052
313.15 K, x1 = 0.8324 | 894.28 ± 1.1 | 1372.3 ± 8.4 | 1.687 ± 0.046
313.15 K, x1 = 0.9121 | 905.03 ± 1.1 | 1382.9 ± 8.4 | 1.52 ± 0.041
313.15 K, x1 = 1 | 917.9 ± 1.1 | 1398 ± 8.5 | 1.4 ± 0.038
318.15 K, x1 = 0.1141 | 819.43 ± 1.1 | 1320.2 ± 8 | 4.835 ± 0.13
318.15 K, x1 = 0.2218 | 827.69 ± 1.1 | 1321.6 ± 8.1 | 4.032 ± 0.11
318.15 K, x1 = 0.3717 | 840.35 ± 1.1 | 1326.2 ± 8.1 | 3.137 ± 0.085
318.15 K, x1 = 0.4886 | 851.26 ± 1.1 | 1331 ± 8.1 | 2.582 ± 0.07
318.15 K, x1 = 0.5815 | 860.67 ± 1.1 | 1336 ± 8.2 | 2.21 ± 0.06
318.15 K, x1 = 0.6645 | 869.69 ± 1.1 | 1341.2 ± 8.2 | 1.928 ± 0.052
318.15 K, x1 = 0.7545 | 880.21 ± 1.1 | 1348 ± 8.2 | 1.672 ± 0.045
318.15 K, x1 = 0.8324 | 890.03 ± 1.1 | 1355.4 ± 8.3 | 1.493 ± 0.04
318.15 K, x1 = 0.9121 | 900.83 ± 1.1 | 1364.7 ± 8.3 | 1.359 ± 0.037
318.15 K, x1 = 1 | 913.8 ± 1.1 | 1378 ± 8.4 | 1.276 ± 0.034
